1 molecule from PMC6934184, “Selective DNA-PKcs inhibition extends the therapeutic index of localized radiotherapy and chemotherapy” (The Journal of Clinical Investigation, 2019) can be followed below.

The test addresses T1, RET M918T (Homo sapiens, UniProt P07949, M918T).
T1 construct: purchased Thermo Fisher Scientific (Life Technologies) SelectScreen
Description: SelectScreen LanthaScreen. The format is binding. To be noted: read-out: % displacement. In outline: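 SelectScreen broad panel; activity (Z'LYTE, Adapta) plus binding formats. ATP: Km app for CSF1R Z'LYTE; 10 for CAMK1 Adapta. Readout = % per kinase.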

T1 sequence (P07949 29-1114 M918T): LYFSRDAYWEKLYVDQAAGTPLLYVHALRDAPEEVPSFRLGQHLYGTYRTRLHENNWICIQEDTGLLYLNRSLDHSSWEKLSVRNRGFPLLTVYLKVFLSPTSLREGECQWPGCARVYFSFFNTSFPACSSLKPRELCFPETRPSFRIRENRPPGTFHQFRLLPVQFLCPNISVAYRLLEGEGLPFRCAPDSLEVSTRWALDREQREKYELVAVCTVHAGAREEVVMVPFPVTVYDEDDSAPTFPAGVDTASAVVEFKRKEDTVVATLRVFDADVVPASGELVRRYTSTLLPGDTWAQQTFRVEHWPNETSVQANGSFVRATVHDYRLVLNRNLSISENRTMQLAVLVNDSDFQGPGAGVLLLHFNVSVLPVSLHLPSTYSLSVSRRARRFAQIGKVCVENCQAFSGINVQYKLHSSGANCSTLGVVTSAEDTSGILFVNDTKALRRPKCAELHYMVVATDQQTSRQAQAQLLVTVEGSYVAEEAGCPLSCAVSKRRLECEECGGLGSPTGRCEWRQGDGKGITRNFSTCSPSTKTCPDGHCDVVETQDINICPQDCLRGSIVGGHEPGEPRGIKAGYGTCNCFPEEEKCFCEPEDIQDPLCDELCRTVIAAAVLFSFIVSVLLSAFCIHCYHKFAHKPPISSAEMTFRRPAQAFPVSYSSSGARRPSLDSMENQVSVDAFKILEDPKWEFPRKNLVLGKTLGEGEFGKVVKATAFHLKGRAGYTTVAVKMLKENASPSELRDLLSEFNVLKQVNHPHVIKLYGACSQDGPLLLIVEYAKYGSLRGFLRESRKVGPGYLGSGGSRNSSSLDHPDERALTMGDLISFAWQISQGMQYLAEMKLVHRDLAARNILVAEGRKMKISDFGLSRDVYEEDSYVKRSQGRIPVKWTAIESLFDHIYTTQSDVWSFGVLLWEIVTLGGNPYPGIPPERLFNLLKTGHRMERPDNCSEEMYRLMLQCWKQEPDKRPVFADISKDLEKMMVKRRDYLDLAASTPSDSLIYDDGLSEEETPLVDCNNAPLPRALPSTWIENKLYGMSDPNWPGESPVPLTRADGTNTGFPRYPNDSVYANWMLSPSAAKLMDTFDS

Take `CN(C(=O)CN1CCOCC1)c1ccc2sc3c(-c4cccc5c(=O)cc(N6CC7CCC(C6)O7)oc45)cccc3c2c1` [NU5455]: the inhibition at 1 µM was -3.5%.
